Laboratory results: US12691084B2, “Pharmaceutical composition for preventing or treating bone diseases” (INDUSTRY FOUNDATION OF CHONNAM NATIONAL UNIVERSITY, priority 2019, dated 2026)

What was measured:
[1] = molecular target: T1, CYP1A2 (Homo sapiens, UniProt P05177); assay: CYP450 drug metabolism inhibition, 1A2; format: in vitro ADME; details: criterion remaining activity >50%
T1 sequence (P05177 1-516): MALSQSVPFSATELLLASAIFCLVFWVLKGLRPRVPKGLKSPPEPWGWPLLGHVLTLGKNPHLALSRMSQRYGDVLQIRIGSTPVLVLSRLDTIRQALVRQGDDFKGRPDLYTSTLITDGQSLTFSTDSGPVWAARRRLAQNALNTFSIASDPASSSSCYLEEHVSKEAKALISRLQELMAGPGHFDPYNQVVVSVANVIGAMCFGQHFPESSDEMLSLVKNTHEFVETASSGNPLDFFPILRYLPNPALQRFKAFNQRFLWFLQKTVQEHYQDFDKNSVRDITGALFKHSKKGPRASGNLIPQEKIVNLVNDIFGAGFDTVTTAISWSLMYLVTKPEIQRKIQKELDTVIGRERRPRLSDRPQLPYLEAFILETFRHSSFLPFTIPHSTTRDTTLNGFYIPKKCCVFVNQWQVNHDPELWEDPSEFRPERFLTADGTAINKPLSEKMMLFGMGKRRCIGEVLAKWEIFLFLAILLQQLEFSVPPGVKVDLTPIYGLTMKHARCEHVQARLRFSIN
Procedure: (§1) In order to analyze the drug metabolism of PMSA compound, ADME evaluation was requested to the Daegu-Gyeongbuk Advanced Medical industry Promotion Foundation (DGMIF). Metabolic stability of drugs using liver microsomes (microsomal stability), drug metabolism inhibitory ability by five CYP450 enzymes, plasma metabolism (plasma stability), plasma protein binding, and intestinal permeability of drugs (PAMPA, parallel artificial membrane permeability assay) were analyzed. […] Further, it was confirmed that the permeability resistance was excellent (see Table 3 below). On the other hand, for one of PMSA derivatives, that is, 2-(N-(3,5-dimethylphenyl)methylsulfinamido)-N-(2 (phenylthio)phenyl)propanamide (#25-D5), intestinal permeability of the drug (PAMPA) was not measured.

[2] = Microsomal stability (H); format: in vitro ADME, human; details: H of H/M; criterion >60%
Procedure: as §1

[3] = molecular target: CYP2C19 (Homo sapiens, UniProt P33261); assay: CYP450 drug metabolism inhibition, 2C19; format: in vitro ADME; details: criterion remaining activity >50%
Sequence of CYP2C19 (P33261 whole entry): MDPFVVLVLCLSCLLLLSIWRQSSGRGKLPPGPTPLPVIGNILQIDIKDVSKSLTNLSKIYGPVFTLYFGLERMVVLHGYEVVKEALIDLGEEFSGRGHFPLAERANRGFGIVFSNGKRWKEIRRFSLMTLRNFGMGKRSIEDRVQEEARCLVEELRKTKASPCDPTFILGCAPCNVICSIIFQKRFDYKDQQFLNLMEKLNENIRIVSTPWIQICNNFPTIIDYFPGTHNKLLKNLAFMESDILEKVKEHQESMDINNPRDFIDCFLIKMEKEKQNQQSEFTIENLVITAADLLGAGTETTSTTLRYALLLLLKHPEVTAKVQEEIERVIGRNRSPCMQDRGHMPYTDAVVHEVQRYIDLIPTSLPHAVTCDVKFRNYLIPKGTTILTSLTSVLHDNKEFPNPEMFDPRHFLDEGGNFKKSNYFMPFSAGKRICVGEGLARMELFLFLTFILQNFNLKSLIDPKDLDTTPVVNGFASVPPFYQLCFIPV
Procedure: as §1

[4] = Plasma stability; format: in vitro ADME
Procedure: as §1

[5] = tested on: osteoblast progenitor cells treated with hBMP2; assay: Osteoblast differentiation, ALP staining; format: cell-based, mouse; details: 7 days
Procedure: After collecting cells from C57BL/6J mouse calvaria at the age of 3 days, the cells were seeded on a 96-well plate in an amount of 4×10^3 cells per well, and then treated with 100 ng/ml of hBMP2 as a differentiation inducer. Simultaneously, the cells were treated with the compound of the present invention and cultured for 7 days, followed by ALP staining to assess differentiation influence. Specific experimental methods and results are as follows.
Precursor cells isolated from the mouse skull were treated with hBMP2 (Bone morphogenic protein 2, Sino biological, 10426-HNAE, 100 ng/ml) to induce differentiation into osteoblasts. Differentiated osteoblasts could be discriminated through alkaline phosphatase (ALP) staining as an osteoblast-specific protein. When the progenitor cells were treated with hBMP2, each of the 35D35 compounds was also used for treatment, followed by culturing the cells for 7 days while changing the medium every 2 to 3 days.
4×10^3 osteoblast progenitor cells were put into a 96-well plate and treated with hBMP2 to induce differentiation of osteoblasts. At this time, the cells were treated with #25 (PMSA-3-Ac) and #25-D12 (PMSA-2-OMe-5-Cl), respectively, and then cultured for 7 days.
After discarding the ethanol, the remaining product was washed with HBSS, followed by adding a NBT solution (Sigma, B1911) in an amount of 100 μl per well and staining for 15 minutes. By washing twice with water, the remaining dye was eliminated. After ALP staining, a degree of color development was measured using Image J software, and then graphed for comparison. […] In other words, it can be seen that the differentiation of osteoblasts is not affected by treatment with the PMSA compound.
Precursor cells isolated from the mouse skull were treated with hBMP2 (Bone morphogenic protein 2, Sino biological, 10426-HNAE) to induce differentiation into osteoblasts. […]
After ALP staining, the degree of color development was measured using Image J software, and then graphed for comparison. […]

[6] = molecular target: CYP2D6 (Homo sapiens, UniProt P10635); assay: CYP450 drug metabolism inhibition, 2D6; format: in vitro ADME; details: criterion remaining activity >50%
Sequence of CYP2D6 (P10635 whole entry): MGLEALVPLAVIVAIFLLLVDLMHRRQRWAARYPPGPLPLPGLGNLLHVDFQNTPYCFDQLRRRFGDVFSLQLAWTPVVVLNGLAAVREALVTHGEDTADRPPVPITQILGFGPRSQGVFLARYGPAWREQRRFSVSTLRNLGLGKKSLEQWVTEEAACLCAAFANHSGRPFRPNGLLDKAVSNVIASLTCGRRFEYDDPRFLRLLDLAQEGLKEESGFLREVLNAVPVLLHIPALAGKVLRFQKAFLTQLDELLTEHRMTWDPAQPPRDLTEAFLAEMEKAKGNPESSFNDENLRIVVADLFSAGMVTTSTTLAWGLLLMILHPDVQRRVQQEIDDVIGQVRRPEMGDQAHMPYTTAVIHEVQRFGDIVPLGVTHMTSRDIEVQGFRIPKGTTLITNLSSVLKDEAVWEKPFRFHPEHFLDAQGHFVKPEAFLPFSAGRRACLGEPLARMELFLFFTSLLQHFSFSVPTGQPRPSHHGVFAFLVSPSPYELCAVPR
Procedure: as §1

[7] = Microsomal stability (M); format: in vitro ADME, mouse; details: M of H/M; criterion >60%
Procedure: as §1

[8] = molecular target: CYP3A4 (Homo sapiens, UniProt P08684); assay: CYP450 drug metabolism inhibition, 3A4; format: in vitro ADME; details: for CYP 3A4 remaining activity: criterion remaining activity >50%
Sequence of CYP3A4 (P08684 whole entry): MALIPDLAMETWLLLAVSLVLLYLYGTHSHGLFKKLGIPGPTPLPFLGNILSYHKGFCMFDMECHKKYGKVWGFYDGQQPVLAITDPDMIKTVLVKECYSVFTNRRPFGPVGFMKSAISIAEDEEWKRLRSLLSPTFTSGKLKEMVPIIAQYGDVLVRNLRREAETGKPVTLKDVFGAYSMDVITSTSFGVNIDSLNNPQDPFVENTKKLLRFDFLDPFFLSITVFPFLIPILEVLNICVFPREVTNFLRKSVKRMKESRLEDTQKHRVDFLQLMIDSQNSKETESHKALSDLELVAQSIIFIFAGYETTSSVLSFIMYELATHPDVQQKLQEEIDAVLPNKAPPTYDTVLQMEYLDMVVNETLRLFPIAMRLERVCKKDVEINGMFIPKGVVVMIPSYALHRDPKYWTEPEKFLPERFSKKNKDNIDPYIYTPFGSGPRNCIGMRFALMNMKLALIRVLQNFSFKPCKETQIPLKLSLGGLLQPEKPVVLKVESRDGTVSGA
Procedure: as §1

[9] = tested on: mouse bone marrow cells; assay: Bone resorption assay on calcium phosphate coated plate; format: cell-based; details: 6 days; for decrease in bone resorption ability: compared to differentiated osteoclasts (Ctrl) not treated, fluorescence absorbance
Procedure: Bone resorption ability was confirmed using a bone resorption assay kit (Cosmo Rio, CSR-BRA). 2.5×10^4 mouse bone marrow cells per well were put into a 48-well plate coated with calcium phosphate, followed by treating the cells with PMSA to perform differentiation for 6 days. After 6 days, a fluorescence absorbance was measured with the culture medium to confirm the bone absorption ability. Further, decomposition degree of calcium phosphate was photographed a microscope to confirm the bone resorption ability. […] In FIG. 4, BMMs refer to monocytes that are not differentiated osteoclasts.
Further, the bone resorption ability was confirmed using a bone resorption assay kit (Cosmo Bio, CSR-BRA). 2.5×10^4 mouse bone marrow cells per well were put into a 48-well plate coated with calcium phosphate, and were differentiated for 6 days while being treated with PSTP-3,5-Me. After 6 days, the fluorescence absorbance was measured with the culture medium to confirm the bone absorption ability.

[10] = molecular target: CYP2C9 (Homo sapiens, UniProt P11712); assay: CYP450 drug metabolism inhibition, 2C9; format: in vitro ADME; details: criterion remaining activity >50%
Sequence of CYP2C9 (P11712 whole entry): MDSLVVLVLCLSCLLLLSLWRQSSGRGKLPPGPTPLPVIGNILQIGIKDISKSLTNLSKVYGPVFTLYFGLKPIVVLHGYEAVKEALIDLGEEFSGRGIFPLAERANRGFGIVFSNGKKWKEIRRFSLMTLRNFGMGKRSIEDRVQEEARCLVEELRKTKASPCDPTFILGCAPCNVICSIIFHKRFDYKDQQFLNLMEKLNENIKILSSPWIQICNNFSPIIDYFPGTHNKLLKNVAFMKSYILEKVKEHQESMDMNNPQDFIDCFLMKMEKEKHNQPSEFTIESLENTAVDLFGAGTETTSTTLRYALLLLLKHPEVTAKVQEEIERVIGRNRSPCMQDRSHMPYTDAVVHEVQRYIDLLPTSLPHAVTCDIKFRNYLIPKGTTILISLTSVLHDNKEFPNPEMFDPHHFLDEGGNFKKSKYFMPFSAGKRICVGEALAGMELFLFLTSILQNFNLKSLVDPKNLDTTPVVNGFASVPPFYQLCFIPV
Procedure: as §1

[11] = tested on: plasma proteins; assay: Plasma protein binding (PPB); format: in vitro ADME, Human; details: for binding with plasma proteins: conclusion from ADME evaluation
Procedure: as §1

CYP 1A2 remaining activity [1] [%]	Microsomal stability (>60%) H [2] [%]	CYP 2C19 remaining activity [3] [%]	Plasma S Human 30 min (% Remaining) [4]	Plasma S Human 120 min (% Remaining) [4]	CYP 2D6 remaining activity [6] [%]	Microsomal stability (>60%) M [7] [%]	CYP 3A4 remaining activity [8] [%]	CYP 2C9 remaining activity [10] [%]	PPB Human (%, bound) [11]	binding with plasma proteins [11]	utility as a drug such as influence on activity of CYP3A4 ([8]; compared with other derivatives)	SMILES	osteoblast differentiation (ALP staining) [5]	decrease in bone resorption ability [9] [%]	bone resorption region (optical microscope) [9]	bone resorption ability (fluorescence intensity) ([9]; RANKL, 0, 3 or 10 μM)
85.7	8.7	6.2	87.1 % Remaining	97.3 % Remaining	80.4	8.0	53.3	63.7	98.4 %, bound	good		CC(=O)c1cccc(N(CC(=O)Nc2ccccc2Sc2ccccc2)S(C)(=O)=O)c1 [#25, 2-(N-(3-acetylphenyl)methylsulfonamido)-N-(2-(phenylthio)phenyl)acetamide]	did not inhibit or activate	16		
85.1	10.9	21.7	100/100 % Remaining	100/100 % Remaining	87.3	14.7	13.4	52.4	99.8 %, bound		not higher than other derivatives	Cc1cc(C)cc(N([C@@H](C)C(=O)Nc2ccccc2Sc2ccccc2)S(C)(=O)=O)c1 [#25-D5, N^2-(3,5-dimethylphenyl)-N^2-(methylsulfonyl)-N-[2-(phenylthio)phenyl]alanineamide]	not affected		not largely shown	significantly decreased in a dose-dependent manner
77.9	13.9	6.3	98.3 % Remaining	97.8 % Remaining	85.5	21.7	26	59.8	99.8 %, bound	good		COc1ccc(Cl)cc1N(CC(=O)Nc1ccccc1Sc1ccccc1)S(C)(=O)=O [#25-D12, 2-(N-(5-chloro-2-methoxyphenyl)methylsulfonamido)-N-(2-(phenylthio)phenyl)acetamide]	did not inhibit or activate	12.5		
